Values joined by “and” are separate entries in the source; they are usually repeats but may differ in a detail not shown here. Identical values can stand only once. Toxic doses and inconclusive results are not listed. How the source made its calls: active means survival T/C of 150% or more; inactive means T/C below 125% in these data.
Tested on: BDF1 mice, Lewis lung carcinoma iv, survival T/C
Experiment: NCI In Vivo Anticancer Drug Screen. Data for tumor model Lewis Lung Carcinoma (intravenous) in B6D2F1 (BDF1) mice
Conditions: endpoint: median survival time, higher = longer survival
Protocol: The antitumor activity of compounds was measured in mice bearing transplantable tumors. Survival or tumor size were measured and the results are expressed as the measurement made in the treated group (T) divided by the measurement made in the vehicle treated control group (C). The tumor model used in this assay is Lewis Lung Carcinoma (intravenous) in B6D2F1 (BDF1) mice

[1] = dose: 6.25 mg/kg/injection, schedule: Q01DX009 (ip), vehicle: saline
[2] = dose: 12.5 mg/kg/injection, schedule: Q01DX009 (ip), vehicle: saline
[3] = dose: 25.0 mg/kg/injection, schedule: Q01DX009 (ip), vehicle: saline
[4] = dose: 50.0 mg/kg/injection, schedule: Q01DX009 (ip), vehicle: saline
[5] = dose: 12.5 mg/kg/injection, schedule: Q01DX009 (ip), vehicle: saline with Tween-80
[6] = dose: 25.0 mg/kg/injection, schedule: Q01DX009 (ip), vehicle: saline with Tween-80
[7] = dose: 50.0 mg/kg/injection, schedule: Q01DX009 (ip), vehicle: saline with Tween-80
[8] = dose: 200.0 mg/kg/injection, schedule: Q01DX009 (ip), vehicle: saline with Tween-80
[9] = dose: 100.0 mg/kg/injection, schedule: Q01DX009 (ip), vehicle: saline
[10] = dose: 100.0 mg/kg/injection, schedule: Q01DX009 (ip), vehicle: saline with Tween-80
[11] = dose: 400.0 mg/kg/injection, schedule: Q01DX009 (ip), vehicle: saline with Tween-80
[12] = dose: 6.25 mg/kg/injection, schedule: Q01DX009 (ip), vehicle: saline with Tween-80

Measured: T/C

CC(=O)C(O)N1C(=O)C=CC1=O (stereo not given)
inactive: dose: 0.62 mg/kg/injection, schedule: Q01DX009 (ip), vehicle: saline 115 % of control | dose: 0.63 mg/kg/injection, schedule: Q01DX009 (ip), vehicle: saline 95 % of control

COc1cc2cc3cc4cc(OC)c(OC)cc4c(C)[n+]3cc2cc1OC (tested in a mixture with another compound)
inactive: [1] 104 % of control | [2] 106 % of control | [3] 107 % of control | [4] 111 % of control

O=C1C(Cl)=C(Cl)C(=O)C2=C1C1c3ccccc3C2c2ccccc21
inactive: [5] 104 % of control | [6] 103 % of control | [7] 103 % of control

CCOC(C)C(/C=N/NC(N)=S)=NNC(N)=S (stereo not given)
inactive: [6] 95 % of control | [7] 104 % of control | [8] 114 % of control
active: [5] 157 % of control

O=C(O)CC(=O)O.[NH-]C1CCCCC1[NH-].[Pt+2] (stereo not given)
inactive: dose: 12.5 mg/kg/injection, schedule: Q01DX009 (ip), vehicle: dextrose 117 % of control | dose: 25.0 mg/kg/injection, schedule: Q01DX009 (ip), vehicle: dextrose 88 % of control

CCOC(=O)C(N)C[S][Sn]([CH3])([CH3])[Cl] (stereo not given)
inactive: [1] 100 % of control | [2] 102 % of control | [3] 95 % of control

Nc1n[nH]c(N)n1
inactive: [9] 90 % of control | dose: 200.0 mg/kg/injection, schedule: Q01DX009 (ip), vehicle: saline 103 % of control | dose: 400.0 mg/kg/injection, schedule: Q01DX009 (ip), vehicle: saline 96 % of control | dose: 800.0 mg/kg/injection, schedule: Q01DX009 (ip), vehicle: saline 119 % of control

O=C1OC(c2ccc(O)cc2)(c2ccc(Oc3ccccc3)cc2)c2ccccc21 (stereo not given)
inactive: [10] 105 % of control | [8] 112 % of control | [11] 99 % of control

COC(=O)c1[nH]c(=O)[nH]c(=O)c1F
inactive: [12] 106 % of control | [5] 115 % of control | [6] 98 % of control

CCC1(O)CC2CN(CCc3c([nH]c4ccccc34)C(C(=O)OC)(c3cc4c(cc3OC)N(C)C3C(O)(C(N)=O)C(O)C5(CC)C=CCN6CCC43C65)C2)C1 (stereo not given) (tested in a mixture with another compound)
inactive: dose: 0.6 mg/kg/injection, schedule: Q04DX003 (ip), vehicle: saline 106 % of control | dose: 1.0 mg/kg/injection, schedule: Q04DX003 (ip), vehicle: saline 111 % of control | dose: 1.67 mg/kg/injection, schedule: Q04DX003 (ip), vehicle: saline 97 % of control | dose: 216.0 micrograms/kg/injection, schedule: Q01DX009 (ip), vehicle: saline 93 % of control | dose: 360.0 micrograms/kg/injection, schedule: Q01DX009 (ip), vehicle: saline 97 % of control

COc1ccc(-c2csc(=[N+]3CCCCC3)s2)cc1
inactive: dose: 1.56 mg/kg/injection, schedule: Q01DX009 (ip), vehicle: water 94 % of control | dose: 3.12 mg/kg/injection, schedule: Q01DX009 (ip), vehicle: water 101 % of control | dose: 6.25 mg/kg/injection, schedule: Q01DX009 (ip), vehicle: water 100 % of control | dose: 12.5 mg/kg/injection, schedule: Q01DX009 (ip), vehicle: water 99 % of control | dose: 25.0 mg/kg/injection, schedule: Q01DX009 (ip), vehicle: water 108 % of control

Nc1nc2c(c(=O)[nH]1)NC(CCNc1ccc(C(=O)NC(CCC(=O)O)C(=O)O)cc1)CN2 (stereo not given)
inactive: [3] 111 % of control | [4] 103 % of control | [9] 117 % of control

CC1CN1CC(O)C(O)CN1CC1C (stereo not given)
inactive: dose: 0.25 mg/kg/injection, schedule: Q01DX009 (ip), vehicle: saline 99 % of control | dose: 0.5 mg/kg/injection, schedule: Q01DX009 (ip), vehicle: saline 111 % of control and 116 % of control | dose: 1.0 mg/kg/injection, schedule: Q01DX009 (ip), vehicle: saline 121 % of control and 116 % of control | dose: 2.0 mg/kg/injection, schedule: Q01DX009 (ip), vehicle: saline 123 % of control

O=NN(CCCl)C(=O)NC1CCCCC1
inactive: dose: 1.0 mg/kg/injection, schedule: Q01DX009 (ip), vehicle: Klucel (hydroxypropylcellulose) (HPC) 106 % of control | dose: 2.0 mg/kg/injection, schedule: Q01DX009 (ip), vehicle: Klucel (hydroxypropylcellulose) (HPC) 108 % of control | dose: 4.0 mg/kg/injection, schedule: Q01DX009 (ip), vehicle: Klucel (hydroxypropylcellulose) (HPC) 120 % of control | dose: 16.0 mg/kg/injection, schedule: Q01DX009 (ip), vehicle: Klucel (hydroxypropylcellulose) (HPC) 118 % of control | dose: 32.0 mg/kg/injection, schedule: Q01DX009 (ip), vehicle: Klucel (hydroxypropylcellulose) (HPC) 93 % of control
active: dose: 8.0 mg/kg/injection, schedule: Q01DX009 (ip), vehicle: Klucel (hydroxypropylcellulose) (HPC) 213 % of control

CCC/C=C/C=C/C(=O)OC1/C(=C/C(=O)OC)CC2CC(C(C)O)OC(=O)CC(O)CC3CC(OC(C)=O)C(C)(C)C(O)(CC4C/C(=C/C(=O)OC)CC(/C=C/C(C)(C)C1(O)O2)O4)O3 (stereo not given)
inactive: dose: 18.75 micrograms/kg/injection, schedule: Q01DX009 (ip), vehicle: saline + alcohol 90 % of control | dose: 37.5 micrograms/kg/injection, schedule: Q01DX009 (ip), vehicle: saline + alcohol 98 % of control | dose: 75.0 micrograms/kg/injection, schedule: Q01DX009 (ip), vehicle: saline + alcohol 107 % of control

CC1CCOS(=O)O1 (stereo not given)
inactive: dose: 10.0 mg/kg/injection, schedule: Q01DX009 (ip), vehicle: saline 100 % of control | dose: 20.0 mg/kg/injection, schedule: Q01DX009 (ip), vehicle: saline 94 % of control | dose: 40.0 mg/kg/injection, schedule: Q01DX009 (ip), vehicle: saline 95 % of control

CCCCCc1cc(/C=C2/N=C(c3ccc[nH]3)C=C2OC)[nH]c1C
inactive: dose: 0.25 mg/kg/injection, schedule: Q01DX009 (ip), vehicle: suspension in saline 94 % of control | dose: 0.5 mg/kg/injection, schedule: Q01DX009 (ip), vehicle: suspension in saline 100 % of control | dose: 1.0 mg/kg/injection, schedule: Q01DX009 (ip), vehicle: suspension in saline 103 % of control | dose: 2.0 mg/kg/injection, schedule: Q01DX009 (ip), vehicle: suspension in saline 103 % of control | dose: 4.0 mg/kg/injection, schedule: Q01DX009 (ip), vehicle: suspension in saline 106 % of control | dose: 8.0 mg/kg/injection, schedule: Q01DX009 (ip), vehicle: suspension in saline 109 % of control

Nc1nnc[se]1
inactive: dose: 3.12 mg/kg/injection, schedule: Q01DX009 (ip), vehicle: saline with Tween-80 103 % of control | [12] 111 % of control | [6] 118 % of control

[Cl][Hg][Cl]
inactive: dose: 0.2 mg/kg/injection, schedule: Q01DX009 (ip), vehicle: saline 95 % of control | dose: 0.4 mg/kg/injection, schedule: Q01DX009 (ip), vehicle: saline 99 % of control | dose: 0.78 mg/kg/injection, schedule: Q01DX009 (ip), vehicle: saline 93 % of control | dose: 1.56 mg/kg/injection, schedule: Q01DX009 (ip), vehicle: saline 93 % of control

Cc1ncc([N+](=O)[O-])n1CCO
inactive: dose: 18.75 mg/kg/injection, schedule: Q01DX009 (ip), vehicle: Klucel (hydroxypropylcellulose) (HPC) 93 % of control | dose: 37.5 mg/kg/injection, schedule: Q01DX009 (ip), vehicle: Klucel (hydroxypropylcellulose) (HPC) 100 % of control | dose: 75.0 mg/kg/injection, schedule: Q01DX009 (ip), vehicle: Klucel (hydroxypropylcellulose) (HPC) 95 % of control | dose: 150.0 mg/kg/injection, schedule: Q01DX009 (ip), vehicle: Klucel (hydroxypropylcellulose) (HPC) 100 % of control | dose: 300.0 mg/kg/injection, schedule: Q01DX009 (ip), vehicle: Klucel (hydroxypropylcellulose) (HPC) 91 % of control | dose: 600.0 mg/kg/injection, schedule: Q01DX009 (ip), vehicle: Klucel (hydroxypropylcellulose) (HPC) 102 % of control

O=C1NC(=O)/C(=C/C=C/c2ccccc2)S1
inactive: [5] 95 % of control | [6] 104 % of control | [7] 101 % of control | [10] 95 % of control | [8] 105 % of control | [11] 104 % of control

Oc1ccc2ccccc2c1N=Nc1ccc(F)cc1
inactive: [10] 106 % of control | [8] 91 % of control | [11] 106 % of control
